{"source": "patent US12343324B2", "about": "“Dihydromyricetin hot melt extrusion formulations and methods for forming them” (The Trustees of Princeton University, priority 2018, dated 2025)", "key": {"[1]": {"test": "Equilibrium solubility in fasted state simulated intestinal fluid (FaSSIF)", "assay_type": "physicochemical", "settings": "thermodynamic from solid, pH 6.5, 37° C., read-out: equilibrium solubility of crystalline DHM in FaSSIF"}, "[2]": {"settings": "reference [31]; cited from earlier work"}, "[3]": {"test": "Equilibrium solubility in fed state simulated intestinal fluid (FeSSIF)", "assay_type": "physicochemical", "settings": "thermodynamic from solid, pH 5.0, 37° C., read-out: equilibrium solubility of crystalline DHM in FeSSIF"}}, "data": [{"smiles": "O=C1c2c(O)cc(O)cc2O[C@H](c2cc(O)c(O)c(O)c2)[C@H]1O", "note": "[DHM, dihydromyricetin]", "values": [{"measurement": "solubility thermodynamic", "setting": "[1]", "value": "~50", "unit": "µg/mL"}, {"measurement": "oral bioavailability", "setting": "[2]", "value": "less than 5%"}, {"measurement": "solubility thermodynamic", "setting": "[3]", "value": "~140", "unit": "µg/mL"}]}]}
